Assay results reported in patent publication EP0542549A1, “Use of cosmetic composition” (UNILEVER PLC, priority 1991, dated 1993).

System: pig skin stratum corneum
Test: In vitro measurement of stratum corneum extensibility (linear extensometer)
Conditions: 44% relative humidity; for Extensibility ratio: ratio of force/extension slopes before and after treatment, 2% extension at 20mm/min, application 4µl/cm² (25ng), mean ± standard deviation, ratio >1 = increased extensibility
From the text: The benefits of the composition following topical application to skin can be quantified by in vitro measurements employing pig skin and an extensometer, in accordance with the following procedure.
Pig skin was selected for this evaluation and this was first cleaned with an aqueous ethanol-chlorohexidine solution (15 : 75 : 10:, Hibitane; ICI Pharmaceuticals). Hairs were removed by clipping followed by depilation with commercially-available thioglycolate cream (Immac : Whitehall Laboratories) and 0.4mm thick slices of skin were removed using a Davies electric skin dermatome. Stratum corneum was isolated by incubating strips of skin, dermis side down, into a solution of trypsin (0.25g% Flow Laboratories) and phosphate-buffered saline (PBS) comprising 137mM NaCl; 2.68mM KCl; 8.1mM NaHPO₄; 1.47mM KH₂PO₄ at pH 7.4 for 2-4h at 37°C. The dermis was separated from the epidermis using forceps and the latter was incubated in fresh trypsin-PBS solution overnight at 4°C. The enzyme solution was changed several times on the following day before the stratum corneum was washed with sonication (Lucas Dawe Ultrasonics; bath sonicleaner) and three changes of PBS to remove trypsin and residual cells. The corneum was then washed with distilled water containing 0.02% sodium azide (to inhibit bacterial growth) before floating onto fluorocarbon filter (Spectra-mesh; 149µ mesh). After drying at ambient temperature and humidity the sheets of corneum were cut into rectangular strips measuring 1 x 2.5cm. The pieces of corneum were mounted at each end with plastic tape (Flow tape; Flow Laboratories) and a 6mm hole was punched into the centre of each tab. During this whole procedure the orientation of the stratum corneum was maintained to ensure samples were treated on their external surfaces only in subsequent experiments. Samples were stored in petri-dishes at ambient humidity and temperature until required. […]
The extensibility of pig skin stratum corneum was measured following treatment with ω-(O-linoleoyl)ceramide having the structure (12), as herein defined. […]

Compound | Extensibility ratio | extensibility ratio compared with hydrolysed ceramide structure (12) or linoleate (students t test, significance at the 5% level, 4µl/cm² (25ng))
CCCCC/C=C\C/C=C\CCCCCCCC(=O)OCCCCCCCCCCCCCCCCCCCCCC(=O)NC(CO)C(O)C=CCCCCCCCCCCCCC (stereo not drawn) [Ceramide structure (12), ω-(O-linoleoyl)ceramide] | 2.11 ± 0.45 | significantly greater
CCCCC/C=C\C/C=C\CCCCCCCC(=O)O [Linoleate, reference compound] | 1.29 ± 0.16 | –
